According to publication PMC4306533, “Distinct Features of Cap Binding by eIF4E1b Proteins” (Journal of Molecular Biology, 2015):
Each block holds one compound with its values, some of them ahead of it.

Experiments:
[1] = tested on: rabbit reticulocyte lysate system (RRL); details: cited from earlier work
[2] = biological target: eIF4E1a; set-up: method as in PMID 19351181; details: Ghosh et al.; cited from earlier work
[3] = tested on: in vitro translation; set-up: method as in PMID 10387101; details: Cai et al.; read-out: IC50 (inhibitory potency); cited from earlier work
[4] = tested on: eIF4E1a; set-up: method as in PMID 15317978; details: cited from earlier work
[5] = biological target: T1, heIF4E1a (Homo sapiens, UniProt P06730); set-up: method as in PMID 17369309; details: equilibrium association constant; buffer without glycerol; footnote b; cited from earlier work
T1 construct: made in house; host or cells: E. coli Rosetta2(DE3)

[6] = biological target: T2, XeIF4E1a (Xenopus laevis, UniProt P48597); experiment: time-synchronized fluorescence titration of cap analogue binding
T2 construct: made in house; host or cells: E. coli Rosetta2(DE3)
Text: (§1) The time-synchronized fluorescence titration method, widely used to determine the affinity constants of cap–eIF4E complexes [[20,22–26]], measures the quenching of the intrinsic fluorescence of tryptophan residues due to cap binding (Fig. S2). Knowledge of the equilibrium association constant Kas enables the calculation of the free-energy changes involved in the interaction between eIF4E and ligand, according to the standard equation ΔG° = − RTlnKas.
(§2) For human eIF4E1a and eIF4E1b and also for Xenopus eIF4E1a and its mutated forms, measurements were carried out using 0.1 μM protein in 50 mM Hepes/KOH (pH 7.2), 134.5 mM KCl, 0.5 mM EDTA and 1 mM DTT. For Xenopus eIF4E1b(ΔN27), the concentration was 0.2 μM and glycerol was added to the buffer to 10% (v/v) final concentration. […] Fluorescence of measured samples was excited at 280 nm (2.5 nm bandwidth) and detected at 337 nm or 330 nm (4 nm bandwidth), thus reducing the signal originated from the free cap analogues. Measurements were carried out on a LS-55 spectrofluorometer (Perkin Elmer Co.) using freshly prepared proteins, and the fluorescence intensities were corrected for sample dilution and the inner filter effect.
(§3) Equilibrium association constants (Kas) were determined by fitting the theoretical dependence of fluorescence intensity on the total concentration of the cap analogue to the experimental data points, according to the equation described previously (see Ref. [22] and Fig. S2c).
(§4) The final Kas was calculated as a weighted average of 2–6 independent titrations with the weights taken as the reciprocal of the numerical standard deviation squared. Numerical, nonlinear least-squares regression analysis was performed using Origin 6.0 (Microcal Software Inc.). Obtained association constants were used to determine the Gibbs free energy according to the standard equation ΔG° = − RTlnKas.

[7] = tested on: heIF4E1b; experiment: as above; set-up: species or system human; details: without glycerol
Text: as §1, §2, §3, §4

[8] = tested on: XeIF4E1a; experiment: as above; set-up: species or system Xenopus laevis; details: without glycerol
Text: as §1, §2, §3, §4

[9] = biological target: T3, heIF4E1b (Homo sapiens, UniProt A6NMX2); experiment: as above
T3 construct: made in house; host or cells: E. coli Rosetta2(DE3)
T3 sequence (A6NMX2 1-242): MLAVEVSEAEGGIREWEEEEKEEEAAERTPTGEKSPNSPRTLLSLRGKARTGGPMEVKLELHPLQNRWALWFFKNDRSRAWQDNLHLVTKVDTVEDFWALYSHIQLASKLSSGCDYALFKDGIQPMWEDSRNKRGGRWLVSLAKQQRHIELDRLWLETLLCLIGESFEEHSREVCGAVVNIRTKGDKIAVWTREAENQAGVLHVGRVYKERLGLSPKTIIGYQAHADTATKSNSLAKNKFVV
Text: as §1, §2, §3, §4

[10] = biological target: T1, heIF4E1a; experiment: as above; details: change relative to m^7GTP; without glycerol
Text: as §1, §2, §3, §4

[11] = biological target: T4, X4E1a3 (E101S/K102R/S195A) (Xenopus laevis, UniProt P48597, E101S/K102R/S195A); experiment: fluorescence titration, XeIF4E1a mutant; format: binding; details: mutant (E101S/K102R/S195A) of XeIF4E1a
T4 construct: made in house; host or cells: E. coli Rosetta2(DE3)
Text: (§5) We tested the effect on cap-binding activity of these positions in the fluorescence assay with six mutated recombinant versions of Xenopus eIF4E1a (Fig. S4). The amino acids were introduced in XeIF4E1a sequentially in the order: E101S/K102R/S195A/M82S/T206L/T207S (numbering of the XeIF4E1a sequence is shifted backward by 4 amino acids relative to XeIF4E1b). […] The biggest contribution to the weaker cap binding of XeIF4E1a, in each case about 20%, resulted from changing Glu101 to Ser and Thr206 to Leu coupled with Thr207 to Ser, with the remaining mutations having only minor effects. […] Glu101 is a solvent-accessible amino acid and is proximal to Trp98 in the S3-S4 loop. […] Attenuation of the cap-binding affinity of XeIF4E1a resulting from mutating Thr206 and Thr207 is consistent with our results mentioned above showing significant influence of C-terminal loop residues on binding phosphate and the second nucleotide.
(§6) For human eIF4E1a and eIF4E1b and also for Xenopus eIF4E1a and its mutated forms, measurements were carried out using 0.1 μM protein in 50 mM Hepes/KOH (pH 7.2), 134.5 mM KCl, 0.5 mM EDTA and 1 mM DTT. For Xenopus eIF4E1b(ΔN27), the concentration was 0.2 μM and glycerol was added to the buffer to 10% (v/v) final concentration. […] The gradually increasing concentration of cap analogue quenches protein fluorescence without shifting the spectrum maximum, while at high concentrations, the fluorescence signal of free cap analogue dominates over the fluorescence from other solution components including free eIF4E and eIF4E in complex with cap (Fig. S2a). Fluorescence of measured samples was excited at 280 nm (2.5 nm bandwidth) and detected at 337 nm or 330 nm (4 nm bandwidth), thus reducing the signal originated from the free cap analogues. Measurements were carried out on a LS-55 spectrofluorometer (Perkin Elmer Co.) using freshly prepared proteins, and the fluorescence intensities were corrected for sample dilution and the inner filter effect.
(§7) Equilibrium association constants (Kas) were determined by fitting the theoretical dependence of fluorescence intensity on the total concentration of the cap analogue to the experimental data points, according to the equation described previously (see Ref. [22] and Fig. S2c). […] Along with Kas and the concentration of the active protein [P0^act], other parameters such as fL and ∆f = fPact − fPL are also gained from the fit, where fL represents the fluorescence efficiency of free cap analogue and ∆f represents the difference between the fluorescence efficiencies of the apo-protein and the complex (Fig. S2c).
as §4

[12] = biological target: T5, X4E1a4 (E101S/K102R/S195A/M82S) (Xenopus laevis, UniProt P48597, E101S/K102R/M82S/S195A); experiment: fluorescence titration, XeIF4E1a mutant; format: binding; details: mutant (E101S/K102R/S195A/M82S) of XeIF4E1a
T5 construct: made in house; host or cells: E. coli Rosetta2(DE3)
Text: as §5, §6, §7, §4

[13] = biological target: T6, X4E1a1 (E101S) (Xenopus laevis, UniProt P48597, E101S); experiment: fluorescence titration, XeIF4E1a mutant; format: binding; details: mutant (E101S) of XeIF4E1a
T6 construct: made in house; host or cells: E. coli Rosetta2(DE3)
Text: as §5, §6, §7, §4

[14] = biological target: T7, X4E1a6 (E101S/K102R/S195A/M82S/T206L/T207S) (Xenopus laevis, UniProt P48597, E101S/K102R/M82S/S195A/T206L/T207S); experiment: fluorescence titration, XeIF4E1a mutant; format: binding; details: mutant (E101S/K102R/S195A/M82S/T206L/T207S) of XeIF4E1a
T7 construct: made in house; host or cells: E. coli Rosetta2(DE3)
Text: as §5, §6, §7, §4

[15] = biological target: T8, X4E1a2 (E101S/K102R) (Xenopus laevis, UniProt P48597, E101S/K102R); experiment: fluorescence titration, XeIF4E1a mutant; format: binding; details: mutant (E101S/K102R) of XeIF4E1a
T8 construct: made in house; host or cells: E. coli Rosetta2(DE3)
Text: as §5, §6, §7, §4

[16] = biological target: T9, X4E1a1’ (K102R) (Xenopus laevis, UniProt P48597, K102R); experiment: fluorescence titration, XeIF4E1a mutant; format: binding; details: mutant (K102R) of XeIF4E1a
T9 construct: made in house; host or cells: E. coli Rosetta2(DE3)
Text: as §5, §6, §7, §4

[17] = tested on: XeIF4E1bΔN27; experiment: time-synchronized fluorescence titration of cap analogue binding; set-up: species or system Xenopus laevis; details: 10% glycerol
Text: as §1, §2, §3, §4

[18] = change relative to m^7GTP, without glycerol
[19] = equilibrium association constant, buffer without glycerol

T2 sequence (P48597 whole entry): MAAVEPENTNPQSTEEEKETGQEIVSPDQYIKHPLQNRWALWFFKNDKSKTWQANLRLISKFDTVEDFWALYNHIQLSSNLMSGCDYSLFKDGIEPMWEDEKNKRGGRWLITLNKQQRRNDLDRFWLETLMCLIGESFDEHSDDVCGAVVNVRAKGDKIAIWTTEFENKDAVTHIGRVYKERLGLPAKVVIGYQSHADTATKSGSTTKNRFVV
T1 sequence (P06730 whole entry): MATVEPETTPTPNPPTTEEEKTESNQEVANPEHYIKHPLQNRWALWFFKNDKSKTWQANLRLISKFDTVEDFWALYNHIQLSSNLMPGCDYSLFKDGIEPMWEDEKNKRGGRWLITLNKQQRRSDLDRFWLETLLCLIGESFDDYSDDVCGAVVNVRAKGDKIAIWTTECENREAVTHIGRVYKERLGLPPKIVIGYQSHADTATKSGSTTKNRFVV
T4 sequence (P48597 whole entry E101S/K102R/S195A): as the sequence (P48597 whole entry) above, with E101S, K102R, S195A counted along it
T8 sequence (P48597 whole entry E101S/K102R): as the sequence (P48597 whole entry) above, with E101S, K102R counted along it
T7 sequence (P48597 whole entry M82S/E101S/K102R/S195A/T206L/T207S): as the sequence (P48597 whole entry) above, with M82S, E101S, K102R, S195A, T206L, T207S counted along it
T5 sequence (P48597 whole entry M82S/E101S/K102R/S195A): as the sequence (P48597 whole entry) above, with M82S, E101S, K102R, S195A counted along it
T6 sequence (P48597 whole entry E101S): as the sequence (P48597 whole entry) above, with E101S counted along it
T9 sequence (P48597 whole entry K102R): as the sequence (P48597 whole entry) above, with K102R counted along it

SMILES: COC1C(COP(=O)([O-])OP(=O)(O)OP(=O)(O)OCC2OC(n3cnc4c(=O)[nH]c(N)nc43)C(O)C2O)OC(n2c[n+](C)c3c(=O)[nH]c(N)nc32)C1O (stereo not shown) [m^7,3′OGpppG]
inhibitory potency and translational efficiency compared with m^7GpppG [1]: higher inhibitory potency and translational efficiency

SMILES: Nc1nc2c(c(=O)[nH]1)[n+](Cc1ccccc1)cn2[C@@H]1O[C@H](COP(=O)([O-])O)[C@@H](O)[C@H]1O [bn^7GMP]
Kd [2]: 0.8 µM
fold higher binding to eIF4E1a than m^7GMP [2]: 10 fold
IC50 [3]: 113 µM

SMILES: Nc1nc2c(ncn2[C@@H]2O[C@H](COP(=O)(O)OP(=O)([O-])OP(=O)(O)OC[C@H]3O[C@@H]([n+]4cn(Cc5ccccc5)c5c(=O)[nH]c(N)nc54)[C@H](O)[C@@H]3O)[C@@H](O)[C@H]2O)c(=O)[nH]1 [bn^7GpppG]
cap-binding affinity to eIF4E1a versus methylated counterpart [4]: no increase in cap-binding affinity to eIF4E1a was observed
inhibitory potency and translational efficiency compared with m^7GpppG [1]: higher inhibitory potency and translational efficiency

ΔΔG^o + glycerol XeIF4E1a ([6]; change relative to m^7GTP, 10% glycerol): 5.653 ± 0.117 kJ/mol
ΔΔG^o − glycerol XeIF4E1a [6, 18]: 5.782 ± 0.134 kJ/mol
Kas + glycerol XeIF4E1a ([6]; equilibrium association constant, 10% glycerol): 2.291 ± 0.065 μM^− 1
Kas − glycerol XeIF4E1a [6, 19]: 3.98 ± 0.11 μM^− 1
Ratio Kas (h4E1a) to Kas (h4E1b) [7]: 1.68
Ratio Kas (h4E1a) to Kas (X4E1a) [8]: 1.49
ΔΔG^o − glycerol heIF4E1b [9, 18]: 4.456 ± 0.167 kJ/mol
Kas − glycerol heIF4E1b [9, 19]: 3.53 ± 0.11 μM^− 1
ΔΔG^o − glycerol heIF4E1a [10]: 5.954 ± 0.243 kJ/mol
Kas X4E1a3 [11]: 2.417 ± 0.051 µM⁻¹
Kas X4E1a4 [12]: 2.87 ± 0.11 µM⁻¹
Kas X4E1a1 [13]: 3.38 ± 0.16 µM⁻¹
Kas X4E1a6 [14]: 2.54 ± 0.15 µM⁻¹
Kas X4E1a2 [15]: 2.81 ± 0.10 µM⁻¹
Kas X4E1a1’ [16]: 3.341 ± 0.090 µM⁻¹
Ratio Kas (X4E1a) to Kas (X4E1bΔN27) [17]: 2.59
ΔΔG^o + glycerol XeIF4E1bΔN27 ([17]; change relative to m^7GTP): 5.305 ± 0.155 kJ/mol
Kas + glycerol XeIF4E1bΔN27 ([17]; equilibrium association constant): 0.883 ± 0.032 μM^− 1
SMILES: Cn1c[n+]([C@@H]2O[C@H](COP(=O)(O)OP(=O)([O-])OP(=O)(O)OC[C@H]3O[C@@H](n4cnc5c(=O)[nH]c(N)nc54)[C@H](O)[C@@H]3O)[C@@H](O)[C@H]2O)c2nc(N)[nH]c(=O)c21 [m^7GpppG]
Kas − glycerol heIF4E1a [5]: 5.94 ± 0.39 ^b μM^− 1
